Experimental data from patent US20050208496A1, “Methods of testing for bronchial asthma or chronic obstructive pulmonary disease” (Genox Research, Inc., priority 2002, published 2005).

Tested on: Balb/c mice
Experiment: OVA antigen-exposed bronchial hypersensitivity mouse model, respiratory constriction caused by acetylcholine
Type: in vivo
Conditions: 5 mg/kg orally
Description: 50 μg OVA and 1 mg aluminum hydroxide (an adjuvant) were injected into the peritoneal cavity of Balb/c mice (male, seven-week old), and after 10 days the mice was sensitized with OVA under the same conditions. Then, after 10 days, 1% OVA was given by inhalation using the Ultra-nebulizer model UN701 (Azwell (Co., Ltd.)) for 30 minutes every four days three times in total. Enhanced bronchial hypersensitivity was monitored by detecting the respiratory constriction caused by acetylcholine (6.25-2000 μg/kg) using an artificial respirator (model 131, New England Medical Instruments Inc.) 24 hours after the final antigen inhalation (Nagai H. et al, Int Arch Allergy Immunol; 108: 189-195, 1995). Bronchial hypersensitivity can be induced by this treatment.

SMILES: C[C@]12C=CC(=O)C=C1CC[C@@H]1[C@@H]2[C@@H](O)C[C@@]2(C)[C@H]1CC[C@]2(O)C(=O)CO [Prednisolone]
- development of bronchial hypersensitivity: suppressed
